The source of these data is patent US20130209446A1, “Copy Number Variant-Dependent Genes As Diagnostic Tools, Predictive Biomarkers And Therapeutic Targets” (Board of Trustees of the University of Arkansas, priority 2010, published 2013).

Common to all, as to assay: MTT cell proliferation assay, PU-H71 titration
What all share (type): cell-based
On the technique in general: Tetrazolium dyes change colour on reduction, which living cells bring about.

One test concerns JJN3. As to conditions: Homo sapiens, JJN-3, JJN3 myeloma cell line, 72 hours, without thrombin. As to the method: (§1) Cell growth inhibition of an anticancer agent (PU-H71) (6) was tested in a panel of myeloma cell lines. HMCLs were treated with a titration of the anti-cancer reagent PU-H71 (0 to 4,000 nM) in vitro for 72 hours. The MTT assay was utilized to detect proliferation of each cell line. The half maximal inhibitory concentration (IC50) of PU-H71 was calculated using OriginPro 7.5 statistic software.

The next test deals with RPMI8226. As to conditions: Homo sapiens, RPMI-8226, RPMI8226 myeloma cell line, 72 hours, without thrombin. As to the method:
as §1

For the next test, the system named is KMS28PE. As to conditions: Homo sapiens, KMS-28PE, KMS28PE myeloma cell line, 72 hours, without thrombin. As to the method: as §1
A further test has as its system H929. Conditions: Homo sapiens, NCI-H929, H929 myeloma cell line, 72 hours, without thrombin. As to the method:
as §1

The test system of the next test is L363. Conditions: Homo sapiens, L-363, L363 myeloma cell line, 72 hours, without thrombin. As to the method: as §1
Another test relates to OPM2. As to conditions: Homo sapiens, OPM-2, OPM2 myeloma cell line, 72 hours, without thrombin. On the procedure:
as §1

A further test concerns OCI-MY5. Conditions: Homo sapiens, OCI-MY5 myeloma cell line, 72 hours, without thrombin. On the procedure: as §1
The next test has as its system KMS28BM. As to conditions: Homo sapiens, KMS-28BM, KMS28BM myeloma cell line, 72 hours, without thrombin. On the procedure: as §1
In the next test the test system is U266. As to conditions: Homo sapiens, U-266, U266 myeloma cell line, 72 hours, without thrombin. On the procedure:
as §1

A further test has as its system MM144. Conditions: Homo sapiens, MM144 myeloma cell line, 72 hours, without thrombin. As to the method:
as §1

For a further test, the system named is ARK. Conditions: Homo sapiens, ARK myeloma cell line, 72 hours, without thrombin. On the procedure: as §1
The next test has as its system XG1. As to conditions: Homo sapiens, XG1 myeloma cell line, 72 hours, without thrombin. On the procedure: as §1
For another test, the system named is INA6. As to conditions: Homo sapiens, INA-6, INA6 myeloma cell line, 72 hours, without thrombin. On the procedure: as §1

Turning to `CC(C)NCCCn1c(Sc2cc3c(cc2I)OCO3)nc2c(N)ncnc21` [PU-H71], the IC50 with JJN3 came to 800 nM; in the test with RPMI8226, 485 nM; in the test with KMS28PE it was 344 nM; with H929, 210 nM; in the test on L363 it was 232 nM; in the test with OPM2 it was 415 nM. The IC50 in the test with OCI-MY5 came to 164 nM; in the test with KMS28BM it was 164 nM; in the test with U266, 198 nM; in the test on MM144, 306 nM; in the test with ARK it was 339 nM; in the test with XG1, 238 nM. Further, the IC50 in the test on INA6 is 141 nM.

A word on the IC50: it is the concentration that gives 50% inhibition.
